Results on 3 molecules are retold here after patent publication US7501281B2, “Compositions, methods and kits related to thrombin, Notch signaling and stamatogenesis and growth of stem cells” (Maine Medical Center Research Institute, priority 2003, dated 2009).

Marks after values point to notes of the source that are not given here.

The test system of test [1] is FGF1 transcript in NIH 3T3 and Swiss 3T3 cells. Put plainly: Nuclear run-on analysis of FGF1 transcription. The test is classed as cell-based, murine. The procedure:
Approximately either 1×10^7 Swiss or NIH 3T3 cells were harvested and washed using ice-cold 50 mM sodium phosphate buffer, pH 7.0 containing 15 mM NaCl. Cell pellets were lysed in 4 ml of ice-cold 10 mM Tris-HCl, pH 7.5, containing 3 mM CaCl2, 3 mM MgCl2, 10 mM NaCl, and 0.5% NP-40. The nuclear pellet was resuspended in glycerol storage buffer (50 mM Tris-HCl, pH 8.3 containing 40% glycerol, 5 mM MgCl2 and 0.1 mM EDTA), the nuclei were snap frozen, and stored in liquid nitrogen. For run-on transcription, 200 μl aliquots of the frozen nuclei were added to 200 μl of reaction buffer (10 mM Tris-HCl, pH 8.3 containing 5 mM MgCl2, 300 mM KCl, 5 mM DTT, 1 mM each of ATP, CTP, and GTP, 40 units of RNase inhibitor and 100 μCi of [^32P]UTP (800 Ci/mmol; Amersham), and incubated at 30° C. for 30 minutes. The mixture was treated with 100 units of RNase-free DNase I for 30 minutes at 30° C. and then incubated with 400 μl of 20 mM Tris-HCl, pH 7.5, containing 2% SDS, 10 mM EDTA, […] proteinase K for 30 minutes at 42° C. Following phenol/CHCl3 extraction, the labelled transcripts were precipitated with isopropanol and dissolved in 50 μl of 10 mM TES, pH 7.5, containing 10 mM EDTA and 0.2% SDS. Linearized plasmid constructs (0.4 μg/dot) containing either the fgfl or gapdh cDNA were alkali denatured and immobilized onto a Hybond-N^+ membrane (Amersham). Hybridization was performed in 1 ml of ULTRA Hyb (Ambion), with 5×10^6 cpm of radiolabeled RNA and yeast RNA (10 μg/ml) for 18 hours with shaking at 50° C. Membranes were washed twice with washing buffer (2×SSC containing 0.1% SDS) at 50° C. and analyzed using a phosphoimager (Molecular Dynamics).

For test [2], the system named is Notch-dependent CSL1 activity in full-length Jagged1 NIH 3T3 cell transfectants. Put plainly: Dual Luciferase Reporter Assay of CSL1-dependent transcription. The class given is cell-based, murine. A general note: Reporter assays use an easily measured gene product as a stand-in for the process of interest.
The target of test [3] is T1, Delta1 (Homo sapiens, UniProt O00548).
T1 construct: made in house
T1 sequence (O00548 18-723): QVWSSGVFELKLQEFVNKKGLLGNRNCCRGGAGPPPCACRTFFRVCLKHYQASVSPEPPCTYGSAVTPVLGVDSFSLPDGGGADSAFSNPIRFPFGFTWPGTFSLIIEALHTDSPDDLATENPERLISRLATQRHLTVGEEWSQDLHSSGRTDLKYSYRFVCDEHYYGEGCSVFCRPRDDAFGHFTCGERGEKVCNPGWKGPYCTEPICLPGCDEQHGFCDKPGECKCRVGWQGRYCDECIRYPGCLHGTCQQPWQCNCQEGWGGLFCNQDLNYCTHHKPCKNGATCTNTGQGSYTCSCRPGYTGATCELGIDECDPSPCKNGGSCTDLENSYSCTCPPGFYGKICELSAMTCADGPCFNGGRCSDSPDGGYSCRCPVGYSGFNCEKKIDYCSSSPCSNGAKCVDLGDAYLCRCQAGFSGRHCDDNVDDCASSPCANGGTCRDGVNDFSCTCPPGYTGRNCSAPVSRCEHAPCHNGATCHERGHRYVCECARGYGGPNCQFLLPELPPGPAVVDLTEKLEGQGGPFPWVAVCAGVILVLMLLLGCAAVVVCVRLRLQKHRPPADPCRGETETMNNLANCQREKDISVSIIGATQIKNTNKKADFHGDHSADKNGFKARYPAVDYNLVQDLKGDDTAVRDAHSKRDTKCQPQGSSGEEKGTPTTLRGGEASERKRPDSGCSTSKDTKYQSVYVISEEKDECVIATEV
As to the kind of experiment: Thrombin cleavage of in vitro translation product of Delta1. The class given is biochemical.

Test [4] concerns mouse NSCS populations. Put plainly: Clonogenic differentiation assay of NCSC, pre-incubation with Notch ligand then BMP2 challenge. The test is classed as cell-based. The procedure:
Clonogenic assays were performed as described (Stemple et al., 1992, Cell 71:973-985). Briefly, populations of murine NCSC were plated at a clonal density and maintained for a maximum of 14 days in Morrison media supplemented with 15% chick embryo extract (Morrison et al., 1999, Cell 96:737-749). The resulting clones were fixed in an acetic acid:ethanol solution (2:1) and stained with antibodies against peripherin (Chemicon) to detect neurons, smooth muscle actin (Sigma) to detect myofibroblasts, and GFAP (Chemicon) to detect Schwann cells. Clones were scored based on the appearance of just one phenotypic representative. The number and percentage of clones containing neurons only (N), Schwann cells only (S), myofibroblasts only (M), N+S, N+M, N+S+M, and S+M were scored at day 14 unless otherwise stated. The production of each representative phenotype in each individual clone was also scored to complement the clonal population assay.
NCSC Retain Neurogenic capacity in the presence of sJ1. A clonogenic differentiation assay was performed using mouse NSCS populations as described previously (Kubu et al., 2002, Dev. Biol. 244:199-214; Stemple et al., 1992, Cell 71:973-985). The cells were incubated in Stemple media (Stemple et al., 1992) with or without 5 nM sDl1 or 7.5 nM sJ I for the time periods set forth in Table 1. After the initial incubation period, cells were washed and neuronal differentiation was challenged in the presence of 1 ng/ml BMP2 for an additional seven days. The resulting clones were fixed and stained for detection of neural crest markers. The data disclosed in Table 1 is presented as the percentage of glial-only, neuron-only, and neuron colonies containing either smooth muscle or glial markers as the mean±standard deviation (SD) of three experiments originating from three independent cell isolations. Note the retention of neurogenic differentiation capacity in sJ1-treated cells (*=p<0.01) compared with the sDl1-treated cells.

The mark [5] stands for this setting: 24 hrs with 5 nM sDl1 or 7.5 nM sJ1, then 1 ng/ml BMP2 for seven days, percentage of colonies, mean±SD.
Setting [6] is: 72 hrs with 7.5 nM sJ1, then 1 ng/ml BMP2 for seven days.
Where [7] appears, read: 120 hrs with 7.5 nM sJ1, then 1 ng/ml BMP2 for seven days.
[8] abbreviates: 168 hrs with 7.5 nM sJ1, then 1 ng/ml BMP2 for seven days.

Thrombin: in test [1] (10 μg/ml α-thrombin or 5 μM TRAP), the “induction of FGF1 transcript” value was “able to induce”. Besides, in test [1] (after addition of thrombin), the “time at which FGF1 mRNA was initially detected” value came to 15 min and the “time to plateau of FGF1 mRNA” value is at most 2 h. Further, the “effect on Notch-dependent CSL1 activity” value in test [2] is “reduce the level of Notch-dependent CSL1 activity in a dose-dependent manner”. In addition, in test [2] (maximal attenuation by thrombin), the “CSL1-dependent transcription, of the control level” value is “approximately 75%”. For the same molecule, in test [3], the “proteolytic modification of Delta1 translation product” value is on record as “unable to proteolytically modify”.
Turning to “sJ1: Soluble Jagged1, amino acid residues from about 1 to 1067 (SEQ ID NO:3) of full-length Jagged1”, in test [2] (sJ1 expression (sJ1 NIH 3T3 cell transfectants)), the “CSL1-dependent transcription, of the control level” value is “approximately 25%”. Further, the Glial-Only in test [4] (setting [5]) is 0%; in test [4] (setting [6]) it was 0.8 ± 1.4%*; in test [4] (setting [7]), 5.82 ± 3.4%*; in test [4] (setting [8]) it was 13.3 ± 4.5%*. Further, the Neuron-Containing in test [4] (setting [5]) came out at 71.4 ± 6.2%*; in test [4] (setting [6]), 74.8 ± 16.3%*; in test [4] (setting [7]), 52.01 ± 14.1%*; in test [4] (setting [8]), 35.03 ± 9.1%. Moreover, the Neuron-Only worked out at 54.4 ± 8.4%* in test [4] (setting [5]), 42.8 ± 6.6%* in test [4] (setting [6]), 13.43 ± 6.5%* in test [4] (setting [7]) and 6.5 ± 1.3%* in test [4] (setting [8]).

B1: sDl1: soluble non-transmembrane form of the Notch ligand Delta1 (protein)
chain: QVWSSGVFELKLQEFVNKKGLLGNRNCCRGGAGPPPCACRTFFRVCLKHYQASVSPEPPCTYGSAVTPVLGVDSFSLPDGGGADSAFSNPIRFPFGFTWPGTFSLIIEALHTDSPDDLATENPERLISRLATQRHLTVGEEWSQDLHSSGRTDLKYSYRFVCDEHYYGEGCSVFCRPRDDAFGHFTCGERGEKVCNPGWKGPYCTEPICLPGCDEQHGFCDKPGECKCRVGWQGRYCDECIRYPGCLHGTCQQPWQCNCQEGWGGLFCNQDLNYCTHHKPCKNGATCTNTGQGSYTCSCRPGYTGATCELGIDECDPSPCKNGGSCTDLENSYSCTCPPGFYGKICELSAMTCADGPCFNGGRCSDSPDGGYSCRCPVGYSGFNCEKKIDYCSSSPCSNGAKCVDLGDAYLCRCQAGFSGRHCDDNVDDCASSPCANGGTCRDGVNDFSCTCPPGYTGRNCSAPVSRCEHAPCHNGATCHERGHRYVCECARGYGGPNCQFLLPELPPGPAVVDLTEKLEGQGGPFPW
modifications: left off: small tags and cut ends
notes: soluble non-transmembrane form of the Notch ligand Delta1
On to B1, for which, in test [4] (setting [5]), the Glial-Only is reported as 57.8 ± 9.9%, the Neuron-Containing was 7.0 ± 5.7% and the Neuron-Only is on record as 0%.
